Test results published in the supplement of paper PMC10949913.

Assays:
Conditions in all cases: 48 h
CU-ACC1 [1] = assay: AC50 viability; higher = less potent
Outline: (§1)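 AC50 and area under the curve values derive from fitted concentration-response curves, restricted to inhibitory or non-responding curve classes. The curves came from three adrenocortical carcinoma cell lines in 1,536-well plates, each receiving 23 nL of every library compound at 11 concentrations. Viability was read by CellTiter-Glo luminescence after 48 h, normalised per plate to vehicle and empty-well controls.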

CU-ACC2 [2] = assay: AC50 viability; higher = less potent
Outline: as §1

NCI-H295R [3] = assay: AC50 viability; higher = less potent
Outline: as §1

CU-ACC1 [4] = assay: area under concentration-response curve (viability) (AUC (a.u.)); higher = less active
Outline: as §1

CU-ACC2 [5] = assay: as above
Outline: as §1

NCI-H295R [6] = assay: as above
Outline: as §1

SMILES | AC50 viability (CU-ACC1 [1]) | AC50 viability (CU-ACC2 [2]) | AC50 viability (NCI-H295R [3]) | area under concentration-response curve (CU-ACC1 [4]) | area under concentration-response curve (CU-ACC2 [5]) | area under concentration-response curve (NCI-H295R [6])
COc1cc2c(cc1O)CCN[C@]21CS[C@@H]2c3c(OC(C)=O)c(C)c4c(c3[C@H](COC1=O)N1[C@@H]2[C@H]2c3c(cc(C)c(OC)c3O)C[C@@H]([C@@H]1O)N2C)OCO4 | 0.00855 µM | 0.0152 µM | 0.0152 µM | 285 | 344 | 315
Oc1c(Cl)cc(Cl)c2cccnc12 | 20.9 µM | 14.8 µM | 16.6 µM | 417 | 426 | 404
CC[C@H]1/C=C\C=C/C[C@@H](C)[C@H](O)[C@@](C)(O)C(=O)[C@@H](C)[C@H](O)[C@@H](C)C(=O)[C@@H](C)[C@H](O)[C@@H](C)/C=C/C(=O)O[C@@H]2[C@H](C)[C@H](CC1)O[C@]1(CC[C@H](C)[C@H](C[C@@H](C)O)O1)[C@H]2C | 0.00186 µM | 7.42 µM | 1.32 µM | 193 | 402 | 326
C=CCNc1c(O)cc2c(O)c1C[C@@H](C)C[C@H](OC)[C@H](O)[C@@H](C)/C=C(/C)[C@H](OC(N)=O)[C@@H](OC)/C=C\C=C(\C)C(=O)N2 | 2.95 µM | 0.525 µM | 14.8 µM | 335 | 335 | 419
O=C(/C=C/C#Cc1cccc(N[S+](=O)([O-])c2ccccc2)c1)NO | 4.07 µM | 6.45 µM | 4.56 µM | 497 | 544 | 542
COc1cc2c(Nc3ccc(Cl)c(Cl)c3F)ncnc2cc1OC[C@@H]1C[C@@H]2CN(C)C[C@@H]2C1 | 9.34 µM | 13.2 µM | 14.8 µM | 407 | 449 | 430
Cn1ncc(Cl)c1-c1cc(C(=O)NC(CN)Cc2ccc(F)c(F)c2)oc1Cl (configuration not stated) | 6.61 µM | 16.6 µM | 5.9 µM | 393 | 422 | 403
CNC1CCC(N(Cc2cccc(-c3ccncc3)c2)C(=O)c2sc3ccccc3c2Cl)CC1 (configuration not stated) | 10.5 µM | 7.42 µM | 9.34 µM | 406 | 448 | 425
CCN(CC)CCNC(=O)c1ccc2nc(-c3ccccc3)c(-c3ccc(CN4CCC(n5c(=O)[nH]c6ccccc65)CC4)cc3)nc2c1 | 9.34 µM | 7.42 µM | 9.34 µM | 444 | 479 | 440
COCCOC(=O)N1CCN([S+](=O)([O-])c2cc(F)c(Oc3ccc(Cl)cc3)c(F)c2)C(C(=O)NO)C1 (configuration not stated) | 13.2 µM | 10.5 µM | 20.9 µM | 471 | 428 | 507
Clc1ccc(C2(c3ccc(-c4cn[nH]c4)cc3)CCNCC2)cc1 | 18.6 µM | 23.5 µM | 18.6 µM | 419 | 423 | 399
C[C@H](NC(=O)C(=O)Nc1ccccc1C(C)(C)C)C(=O)N[C@@H](CC(=O)O)C(=O)COc1c(F)c(F)cc(F)c1F | 1.66 µM | 0.661 µM | 1.05 µM | 328 | 235 | 203
COc1cc(N[S+](C)(=O)[O-])ccc1Nc1c2ccccc2nc2ccccc12 | 13.2 µM | 7.42 µM | 13.2 µM | 299 | 409 | 420
COc1ccc(Nc2cc(-c3cnc(N)nc3)nc(N3CCOCC3)n2)cn1 | 1.05 µM | 1.05 µM | 1.66 µM | 413 | 493 | 392
CCOc1cc(C(=O)N2CCC(N3CCN(C)CC3)CC2)ccc1Nc1ncc2c(n1)N(C1CCCC1)c1ccccc1C(=O)N2C | 18.6 µM | 18.6 µM | 18.6 µM | 423 | 494 | 448
CC(C)[C@]12O[C@H]1[C@@H]3O[C@@]34[C@@]5(C)CC\C6=C(COC6=O)/[C@@H]5C[C@@H]7O[C@]47[C@@H]2O | 0.0525 µM | 0.059 µM | 0.295 µM | 251 | 242 | 274
CO[C@H]1CCC(O[C@H]2C[C@H]([C@]3(C)CC[C@]4(C[C@H](O)[C@@H](C)[C@@H]([C@@H](C)/C=C(\C)C(=O)[C@H](C)C[C@H](C)C(=O)[O-])O4)O3)O[C@]3(O[C@@H]([C@H]4O[C@@](O)(CO)[C@H](C)C[C@@H]4C)C[C@@H]3C)[C@@H]2C)O[C@@H]1C (some centres not stated) | 1.48 µM | 2.35 µM | 2.63 µM | 400 | 392 | 440
Cc1cc(CN2CCN(c3c(Br)cnc4[nH]c(-c5ccc(N6CCN(C)CC6)cc5)nc34)CC2)no1 | 0.934 µM | 20.9 µM | 26.3 µM | 459 | 478 | 425
O=C(Nc1ccccc1-c1cn2c(CN3CCNCC3)csc2n1)c1cnc2ccccc2n1 | 6.61 µM | 7.42 µM | 2.95 µM | 367 | 366 | 358
CCN1CCN(C(=O)Cc2ccc(Nc3ncc(F)c(Nc4ccc(C(=O)Nc5ccccc5Cl)cc4)n3)cc2)CC1 | 9.34 µM | 8.33 µM | 7.42 µM | 412 | 490 | 389
Cc1cccc(Nc2nc(N[C@@H]3CCCC[C@@H]3N)ncc2C(N)=O)c1 | 26.3 µM | 26.3 µM | 18.6 µM | 476 | 546 | 496
CC(=O)[C@]1(O)Cc2c(O)c3c(c(O)c2[C@@H](O[C@H]2C[C@H](N)[C@H](O)[C@H](C)O2)C1)C(=O)c1ccccc1C3=O | 20.9 µM | 20.9 µM | 14.8 µM | 428 | 485 | 377
C=CC(=O)N1CCC(Oc2cc3c(Nc4ccc(Cl)c(Cl)c4F)ncnc3cc2OC)CC1 | 4.68 µM | 20.9 µM | 20.9 µM | 400 | 532 | 440
Cc1nn(Cc2ccccc2Cl)c(C)c1CN(C)CC(O)COc1ccc(Cl)cc1 (configuration not stated) | 8.33 µM | 7.42 µM | 8.33 µM | 418 | 507 | 482
COc1cc(O)c2c(c1)C1OC1C[C@H](O)[C@H](O)C(=O)/C=C\C[C@H](C)OC2=O (some centres not stated) | 6.61 µM | 16.6 µM | 14.8 µM | 429 | 492 | 435
CC(C)N1N/C(=C2\C=c3cc(O)ccc3=N2)c2c(N)ncnc21 | 1.66 µM | 2.63 µM | 2.09 µM | 401 | 520 | 472

SMILES | AC50 viability (CU-ACC1 [1]) | AC50 viability (CU-ACC2 [2]) | AC50 viability (NCI-H295R [3]) | area under concentration-response curve (CU-ACC1 [4]) | area under concentration-response curve (CU-ACC2 [5]) | area under concentration-response curve (NCI-H295R [6])
COC1=CC2=C(C=C1CC3=C(F)C(=CC=C3)Cl)C(=O)\C(=C/N2[C@H](CO)C(C)C)C(O)=O | 16.6 µM | 14.8 µM | 20.9 µM | 405 | 528 | 509
CCc1ccc(OCc2ccccc2C(=O)Nc2ccc3nc(C)cc(N)c3c2)cc1 | 10.5 µM | 6.61 µM | 8.33 µM | 342 | 513 | 482
CNC(=O)c1ccc(Nc2ncc(C(F)(F)F)c(NCc3nccnc3N(C)[S+](C)(=O)[O-])n2)cc1 | 3.32 µM | 1.86 µM | 3.32 µM | 354 | 336 | 353
CC(C)C[C@H](NC(=O)CNC(=O)c1cc(Cl)ccc1Cl)B(O)O | 0.166 µM | 0.209 µM | 0.105 µM | 329 | 373 | 408
COc1ccc(CNC(=O)Nc2ncc([N+](=O)[O-])s2)cc1 | 29.5 µM | 18.6 µM | 23.5 µM | 394 | 400 | 410
COc1ccc(-c2cc(C(O)C3CCCCN3)c3ccccc3n2)cc1 (configuration not stated) | 10.5 µM | 14.8 µM | 7.42 µM | 432 | 377 | 455
CC1(C)CC\C2=C(/O1)C3=C(C=CC=C3)C(=O)C2=O | 6.61 µM | 16.6 µM | 33.2 µM | 333 | 515 | 535
CN(C)Cc1c(C(=O)NCCOc2ccc(C(=O)NO)cc2)oc2ccccc12 | 1.48 µM | 1.48 µM | 1.32 µM | 412 | 425 | 412
CCCCc1nc2cc(/C=C/C(=O)NO)ccc2n1CCN(CC)CC | 1.66 µM | 5.9 µM | 1.48 µM | 416 | 405 | 453
CCC(C)SSc1ncc[nH]1 (configuration not stated) | 33.2 µM | 20.9 µM | 23.5 µM | 503 | 507 | 491
COc1cc(OCc2cccc(-c3ccccc3)c2C)cc(OC)c1CN1CCCC[C@H]1C(=O)O | 16.6 µM | 20.9 µM | 18.6 µM | 444 | 546 | 514
CNCCn1c(=O)c2cc(OC)c(OC)cc2c2cnc3cc4c(cc3c21)OCO4 | 0.0959 µM | 0.135 µM | 0.152 µM | 422 | 537 | 553
ClC/1=C(NCCN2CCOCC2)/C(=O)C3=C(C=CC=N3)C1=O | 2.35 µM | 8.33 µM | 5.9 µM | 387 | 409 | 440
COc1ccc(C(=O)c2c(C)n(CCN3CCOCC3)c3ccccc23)cc1 | 10.5 µM | 5.25 µM | 5.25 µM | 389 | 431 | 402
C[C@@]12OC(=O)[C@@]1(NC(=O)[C@@H]2CCCl)[C@@H](O)[C@H]\3CCC\C=C3 | 0.833 µM | 1.05 µM | 0.833 µM | 305 | 437 | 435
Cc1c(CN2CCN([S+](C)(=O)[O-])CC2)sc2c(N3CCOCC3)nc(-c3cnc(N)nc3)nc12 | 0.525 µM | 0.468 µM | 1.18 µM | 282 | 403 | 333
COc1nc(OCc2cccc(-c3ccccc3)c2C)ccc1CNCCNC(C)=O | 11.8 µM | 16.6 µM | 5.9 µM | 390 | 379 | 412
COCCNCCc1cccc(Nc2ncc3c(n2)-c2ccccc2[C@H](c2ccccc2F)C3)c1 | 11.8 µM | 26.3 µM | 8.33 µM | 496 | 502 | 467
c1ccc2c(CCNc3ccc(Nc4ccncc4)cc3)c[nH]c2c1 | 5.9 µM | 10.5 µM | 1.86 µM | 363 | 374 | 400
C=C1C(=O)O[C@@H]2[C@H]3O[C@]3(C)CC/C=C(\C)CC[C@@H]12 | 14.8 µM | 7.42 µM | 9.34 µM | 375 | 522 | 497
CCC(=O)N1CCN(CC1)C2=C(C=C(C=C2)N3C(=O)\C=C/C4=C3C5=CC(=CC=C5N=C4)C6=CN=C7C=CC=CC7=C6)C(F)(F)F | 0.0102 µM | 0.0456 µM | 0.129 µM | 305 | 362 | 326
NC(CO)(CO)CCc1ccc(Sc2cccc(OCc3ccccc3)c2)cc1Cl | 14.8 µM | 18.6 µM | 10.5 µM | 423 | 491 | 449
C[C@@H](NCc1cc2ccccc2[nH]1)c1cccc2ccccc12 | 20.9 µM | 20.9 µM | 23.5 µM | 428 | 479 | 428
Nc1ccc(/C=C/C(=O)NCc2cc3cc(-c4ccc(C(=O)N5CCC(F)(F)CC5)cc4)cc(-c4ccc(F)cc4)c3o2)cn1 | 2.09 µM | 2.35 µM | 3.32 µM | 340 | 447 | 458
O=C1NC(=O)/C(=C/c2ccc3nccc(-c4ccncc4)c3c2)S1 | 1.32 µM | 1.18 µM | 1.32 µM | 412 | 480 | 393
C=CC(=O)N1CC/C(=C\c2ccc(F)c([N+](=O)[O-])c2)C(=O)/C(=C/c2ccc(F)c([N+](=O)[O-])c2)C1 | 0.263 µM | 0.148 µM | 0.209 µM | 318 | 342 | 333
